PMC7221793, “Metabolism and Pharmacokinetics of SP-8356, a Novel (1S)-(−)-Verbenone Derivative, in Rats and Dogs and Its Implications in Humans” (Molecules, 2020)

Columns and labels:
[1] = In vivo metabolite identification, pooled rat plasma (Q-TOF LC-MS/MS); conditions: i.v. SP-8356 20 mg/kg; for AUClast (%): % versus total AUClast of parent and all detected metabolites; for AUClast (AR∙h) × 10^2: AR = peak area ratio versus internal standard; for Tmax: male, SD, iv, time of highest AR
Description: (§1) Plasma samples from the i.v. administrations described in Section 4.2 and Section 4.3 were used in this study. Plasma samples pooled at each time point were subjected to sample preparation as described in Section 4.2. The prepared samples were analyzed by Agilent 6530 Q-TOF LC-MS/MS system equipped with dual AJS ESI ion source and Agilent 1200 series HPLC system as described below.
(§2) Chromatographic separation was achieved on an Agilent Eclipse C18 column (2.1 mm × 100 mm, 3.5 µm) by a gradient elution with a mobile phase consisting of 0.1 vol.% formic acid in water (A) and 0.1 vol.% formic acid in acetonitrile (B) at 50 °C: starting with 5 vol.% B for 2 min, ramping to 95 vol.% B over 1 min, maintaining for 3 min. The mobile phase flow rate was kept at 0.45 mL/min throughout the run. The sample injection volume was 5 µL. Ion source parameters were set as follows: capillary voltage, 3500 V; drying gas, 12 L/min and 300 °C; nebulizer gas, 30 psi; sheath gas, 12 L/min and 300 °C. Mass spectra were acquired in negative ion auto MS/MS mode (F, 135 V; CE, 25 eV) with full scan range of m/z (100–1000) and mass scan rate of 8 spectra/s. Metabolites were identified using Agilent MassHunter Metabolite ID software (version B.04.00) (Santa Clara, CA, USA). Chromatograms and mass spectra of the parent and identified metabolites were extracted using Agilent MassHunter Qualitative Analysis software (version B.05.00) (Santa Clara, CA, USA).

[2] = In vivo metabolite identification, pooled dog plasma (Q-TOF LC-MS/MS); conditions: i.v. SP-8356 50 mg/kg; for AUClast (%): % versus total AUClast of parent and all detected metabolites; for AUClast (AR∙h) × 10^2: AR = peak area ratio versus internal standard; for Tmax: male, Beagle, iv, time of highest AR
Description: as §1, §2

[3] = In vivo metabolite identification, pooled rat urine; conditions: rat pooled urine 0–24 h, single i.v. dose of SP-8356
Description: Rat urine samples were collected from the animal studies approved by the IACUC of Korea University (Approval No.: KUIACUC-2017-124; Approval date: Jul. 29, 2017). SP-8356 dissolved in DMA/Cremophor EL/saline (5/10/85 vol.%) was dosed i.v. at 10 mg/kg (n = 5/dose group) to male SD rats (8 weeks old; (255–275) g; Koatech Inc., Gyeonggi, Republic of Korea) housed individually in metabolic cages. Urine samples were collected for ((0–4), (4–8) and (8–24)) h. Pooled urine samples were mixed with equal volume of acetonitrile containing HSDH (1 μg/mL) as IS, followed by filtration with a syringeless filter device (Mini-UniPrep™, PTFE filter media with polypropylene housing, 0.45 µm). The filtrate was analyzed by Agilent 6530 Q-TOF LC-MS/MS system equipped with dual AJS ESI ion source and Agilent 1200 series HPLC system, as follows.
Chromatographic separation was achieved on an Agilent Eclipse C18 column (2.1 mm × 100 mm, 3.5 µm) by a gradient elution with a mobile phase consisting of 0.1 vol.% formic acid in water (A) and 0.1 vol.% formic acid in acetonitrile (B) at 50 °C: starting with 5 vol.% B for 2 min, ramping to 95 vol.% B over 1 min, maintaining for 3 min. The mobile phase flow rate was kept at 0.45 mL/min throughout the run. The sample injection volume was 5 µL. […]

Structure (SMILES) | AUClast (%) [1] [%] | AUClast (AR∙h) × 10^2 [1] | Tmax [1] [min] | AUClast (%) [2] [%] | AUClast (AR∙h) × 10^2 [2] | Tmax [2] [min] | metabolites detected in urine [3]
CC1(C)[C@@H]2C[C@H]1C(/C=C/c1cc(O)c(O)c(O)c1)=CC2=O [M3] | 0.40 | 0.55 (AR∙h) × 10^2 | 1.02 | 0.07 | 2.7 (AR∙h) × 10^2 | 4.98 | –
COc1cc(C=CC2=CC(=O)C3CC2C3(C)C)cc(OC2OC(C(=O)O)C(O)C(O)C2O)c1OC1OC(C(=O)O)C(O)C(O)C1O (stereo not shown) [M5] | 0.84 | 1.14 (AR∙h) × 10^2 | 15 | 3.05 | 120.5 (AR∙h) × 10^2 | 60 | detected
